Five compounds from ChEMBL document CHEMBL2157944, “Evaluation of structure-derived pharmacophore of soluble epoxide hydrolase inhibitors by virtual screening” (Bioorg Med Chem Lett, 2012) can be followed below.

By IC50 is commonly meant the concentration needed to halve the response being measured.

Data set [1] has as its target T1, Bifunctional epoxide hydrolase 2 (Homo sapiens, UniProt P34913).
T1 sequence (P34913 whole entry): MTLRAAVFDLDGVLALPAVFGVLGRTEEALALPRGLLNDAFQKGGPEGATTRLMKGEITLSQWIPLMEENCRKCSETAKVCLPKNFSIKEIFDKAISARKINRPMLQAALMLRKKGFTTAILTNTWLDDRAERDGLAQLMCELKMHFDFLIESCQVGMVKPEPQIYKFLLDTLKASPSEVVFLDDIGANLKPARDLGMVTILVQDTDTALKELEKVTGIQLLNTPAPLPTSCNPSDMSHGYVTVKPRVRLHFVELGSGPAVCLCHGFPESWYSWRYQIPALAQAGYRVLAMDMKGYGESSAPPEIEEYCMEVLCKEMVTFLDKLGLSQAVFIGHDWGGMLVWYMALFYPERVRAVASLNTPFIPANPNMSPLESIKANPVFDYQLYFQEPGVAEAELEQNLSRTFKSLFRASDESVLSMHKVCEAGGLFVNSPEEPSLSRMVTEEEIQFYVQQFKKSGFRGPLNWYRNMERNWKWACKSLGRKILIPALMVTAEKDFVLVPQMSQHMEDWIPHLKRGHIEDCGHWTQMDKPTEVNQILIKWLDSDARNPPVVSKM
As to the kind of experiment: Inhibition of sEH using (3-Phenyl-oxiranyl)-acetic acid cyano-(6-methoxy-naphthalen-2-yl)-methyl ester) as substrate incubated for 15 mins prior to substrate addition measured every min for 15 mins by fluorimetric analysis.

A short description of data set [2]: Solubility of the compound at >100 uM. The data set is classed as physicochemical.
A short description of data set [3]: Solubility of the compound. The format is physicochemical.

`O=C(Nc1cccc(Cl)c1)OCCCNS(=O)(=O)c1cccc([N+](=O)[O-])c1`: the IC50 in data set [1] was 3.2 µM. In data set [1], `O=C(Nc1cccc(O)c1)OCC1c2ccccc2-c2ccccc21` gave a concentration for half-maximal inhibition (IC50) of 5.5 µM. Regarding `Cc1cc(-c2cnc(NCCCc3ccccn3)nc2C(C)C)on1`, the solubility entry in data set [2] was “Insoluble”. Consider `NS(=O)(=O)c1ccc(CNc2ncc(-c3ccncc3)c(C3CC3)n2)cc1`, for which the solubility entry in data set [3] is recorded as “Insoluble”. For the compound `O=C(NCCCNc1ncc(-c2ccncc2)c(C2CC2)n1)c1ccccn1`, in data set [1], the concentration for half-maximal inhibition (IC50) turned out to be 25 µM.
